{
  "source": "patent US10878939B2",
  "about": "“Methods and compositions for personalized pain management” (Children's Hospital Medical Center, priority 2014, dated 2020)",
  "origin": "cited, not measured here",
  "conditions": "other reports; cited from earlier work",
  "data": [
    {"smiles": "CN1CC[C@]23c4c5ccc(O[C@@H]6O[C@H](C(=O)O)[C@@H](O)[C@H](O)[C@H]6O)c4O[C@H]2[C@@H](O)C=C[C@H]3[C@H]1C5", "note": "[M3G, Morphine-3-Glucuronide]", "values": [
      {"measurement": "M3G metabolite formation relative to M6G formation", "value": "7-10 fold"}
    ]}
  ]
}
